Laboratory results taken from patent US8003823B2, “Halo active aromatic sulfonamide organic compounds and odor control uses therefor” (priority 2002, dated 2011).

Columns and labels:
[1] = Odor control spray test, six person human panel: onion odor; set-up: key: E=Excellent, immediate removal of odor, no remaining odor.; G=Good, Immediate (within seconds) reduction of odor, very slight but detectable trace odor remains.; F=Fair, Immediate (within seconds) reduction, more pronounced odor remains.; P=Detectable reduction in odor but rate of reduction is slow and a much more pronounced odor remains; settings: 2 g chopped white onion, 3 g of 1% w/w solution with 0.3% Avenal S-74, pH 8.0-9.0, sprayed, 20° C.
Protocol: (§1) For purposes of conducting the test in accordance with the below listed Examples a series of odorous test reagents were prepared. The utilized odorous test reagents are in accordance with the following:
2 g samples of chopped white onion (Approximately ⅛″ cubes) were prepared and used for each test.
(§2) Unless otherwise specified separate 1% w/w solutions in water of each halo active aromatic sulfonamide derivative were prepared for use. Each solution also contained 0.3% Avenal S-74. The pH of the resulting formulations varied between 8.0 and 9.0.
(§3) The testing protocol for Examples 1 thru 12 involved is as follows: The defined odorous reagents were added to a beaker, watch glass, or petri dish. For each aromatic sulfonamide derivative, 3 grams of the formulated odor control solution defined above were sprayed with a trigger sprayer, separately onto each odor (onion, garlic, fox urine, rotten egg. Odor evaluations were then made by a six person human panel.
(§4) The evaluation criteria utilized is as follows;
(§5) All test evaluations were made at 20° C.

[2] = Odor control spray test, six person human panel: garlic odor (DMSO); set-up: key: E=Excellent, immediate removal of odor, no remaining odor.; G=Good, Immediate (within seconds) reduction of odor, very slight but detectable trace odor remains.; F=Fair, Immediate (within seconds) reduction, more pronounced odor remains.; P=Detectable reduction in odor but rate of reduction is slow and a much more pronounced odor remains; settings: 1 g DMSO, 3 g of 1% w/w solution with 0.3% Avenal S-74, pH 8.0-9.0, sprayed, 20° C.
Protocol: as §1
DMSO (dimethyl sulfoxide) 1 g was used for each test.
as §2, §3, §4, §5

[3] = Odor control spray test, six person human panel: fox urine odor; set-up: key: E=Excellent, immediate removal of odor, no remaining odor.; G=Good, Immediate (within seconds) reduction of odor, very slight but detectable trace odor remains.; F=Fair, Immediate (within seconds) reduction, more pronounced odor remains.; P=Detectable reduction in odor but rate of reduction is slow and a much more pronounced odor remains; settings: 0.5 g red fox urine, 3 g of 1% w/w solution with 0.3% Avenal S-74, pH 8.0-9.0, sprayed, 20° C.
Protocol: as §1
0.5 g of deer hunter's grade red fox urine was used for each test.
as §2, §3, §4, §5

[4] = Odor control spray test, six person human panel: rotten egg odor (sodium sulfide + acetic acid); set-up: key: E=Excellent, immediate removal of odor, no remaining odor.; G=Good, Immediate (within seconds) reduction of odor, very slight but detectable trace odor remains.; F=Fair, Immediate (within seconds) reduction, more pronounced odor remains.; P=Detectable reduction in odor but rate of reduction is slow and a much more pronounced odor remains; settings: 0.1 g 5% sodium sulfide solution + 2 drops glacial acetic acid, 3 g of 1% w/w solution with 0.3% Avenal S-74, pH 8.0-9.0, sprayed, 20° C.
Protocol: as §1
0.1 g of a 5% sodium sulfide solution was added to a beaker and 2 drops of glacial acetic acid was added to prepare the rotten egg scent and used for each test.
as §2, §3, §4, §5

[5] = Stability of sulfonamide in base formulation at various pHs and alcohols; assay type: physicochemical
Protocol: In order to evaluate the stability of various sulfonamide compounds for use in odor control, the stability of N-chloro-4carboxybenzenesulfonamide disodium salt was evaluated at various pHs. A base sulfonamide formulation was prepared in accordance with the following formulation: […]
The pH of 20 ml sample of the base formulation is 8.7. The temperature of the sample was raised to 50° C. and the sample was allowed to stand for 30 days.
21. The test protocol of Example 20 was repeated except that the pH of the sample was adjusted to 6.0, with 1N sulfuric acid and the sample was allowed to stand for 1 day. At the end of this period 0%, of the N-chloro-4-carboxybenzenesulfonamide disodium salt remained.
22. The test procedure of Example 20 was repeated, wherein the pH of the sample was adjusted to 6.0 with 1N sulfuric acid and the t-Butanol was replaced with ethanol. The solution was allowed to stand 1 day at which time 0% of the sulfonamide compound remained.
23. The test procedure of Example 20 was repeated where the pH of the sample was 8.7 and the t-butanol was replaced with ethanol. The sample was allowed to stand for 7 days. At the end of this period 0%, the N-chloro-4-carboxybenzenesulfonamide disodium salt remained.
24. The test procedure of Example 20 was repeated, wherein the pH of the sample was adjusted to 10.3 with 1N sodium hydroxide and the t-Butanol was replaced with ethanol. The solution was allowed to stand 30 days at which time 70% of the sulfonamide compound remained.
25. The test procedure of Example 20 was repeated, wherein the pH of the sample was adjusted to 6.0 with 1N sulfuric acid and the t-Butanol was replaced with isopropanol. The solution was allowed to stand 1 day at which time 0% of the sulfonamide compound remained.
26. The test procedure of Example 20 was repeated where the pH of the sample was 8.7 and the t-butanol was replaced with isopropanol. The sample was allowed to stand for 7 days. At the end of this period 50%, the N-chloro-4-carboxybenzenesulfonamide disodium salt remained.
27. The test procedure of Example 20 was repeated, wherein the pH of the sample was adjusted to 10.3 with 1N sodium hydroxide and the t-Butanol was replaced with isopropanol. The solution was allowed to stand 30 days at which time 90% of the sulfonamide compound remained.

O=C([O-])c1ccc(S(=O)(=O)[N-]Cl)cc1.[Na+].[Na+] [Example 12]
Onion odor evaluation [1]: E
Garlic odor evaluation [2]: F
Fox Urine odor evaluation [3]: E
Rotten Egg odor evaluation [4]: E

N-chloro-4-carboxybenzenesulfonamide disodium salt
sulfonamide compound remained ([5]; base formulation with t-Butanol, pH 8.7, 50° C., 30 days): 99.5%
sulfonamide compound remained ([5]; t-Butanol replaced with ethanol, pH 6.0, 50° C., 1 day): 0%
sulfonamide compound remained ([5]; t-Butanol replaced with ethanol, pH 10.3 with 1N sodium hydroxide, 50° C., 30 days): 70%
sulfonamide compound remained ([5]; t-Butanol replaced with isopropanol, pH 6.0, 50° C., 1 day): 0%
sulfonamide compound remained ([5]; t-Butanol replaced with isopropanol, pH 10.3 with 1N sodium hydroxide, 50° C., 30 days): 90%
sulfonamide compound remained ([5]; t-Butanol, pH adjusted to 6.0 with 1N sulfuric acid, 50° C., 1 day): 0%
sulfonamide compound remained ([5]; t-butanol replaced with ethanol, pH 8.7, 50° C., 7 days): 0%
sulfonamide compound remained ([5]; t-butanol replaced with isopropanol, pH 8.7, 50° C., 7 days): 50%

O=[N+]([O-])c1ccc(S(=O)(=O)[N-]Cl)cc1.[Na+] [Example 11]
Onion odor evaluation [1]: G
Garlic odor evaluation [2]: F
Fox Urine odor evaluation [3]: E
Rotten Egg odor evaluation [4]: F
